Assay results: ChEMBL document CHEMBL5108072, “Discovery of Chlorofluoroacetamide-Based Covalent Inhibitors for Severe Acute Respiratory Syndrome Coronavirus 2 3CL Protease” (J Med Chem, 2022)
Calls of active or inactive are those of the source. No cut-off for these calls is given here.

Legend:
SARS-CoV-2 [1] = assay: microbe, parasite or virus in culture; settings: Severe acute respiratory syndrome coronavirus 2, alpha QK002, HEK-293T
SARS-CoV-2 [2] = assay: microbe, parasite or virus in culture; settings: Severe acute respiratory syndrome coronavirus 2, delta TY11-927, HEK-293T
SARS-CoV-2 [3] = assay: microbe, parasite or virus in culture; settings: Severe acute respiratory syndrome coronavirus 2, HEK-293T
[4] = molecular target: Replicase polyprotein 1ab (Severe acute respiratory syndrome coronavirus 2) (UniProt P0DTD1); assay: Irreversible inhibition of recombinant full length SARS-CoV-2 3CLpro expressed in Escherichia coli using Ac-Abu-Tle-Leu-Gln-MCA as fluorogenic substrate assessed as inhibition of substrate hydrolysis at upto 500 nM incubated for 60 mins by multimode plate reader analysis; settings: TDE = time-dependent effect
[5] = Drug concentration in fasted ICR/c mouse lungs at 10 mg/kg, iv measured after 6 hrs by LC-MS/MS analysis; format: ADME, organism-based, Lung; settings: in vivo
SARS-CoV-2 [6] = assay: microbe, parasite or virus in culture; settings: Severe acute respiratory syndrome coronavirus 2, Vero C1008
[7] = Drug concentration in fasted ICR/c mouse lungs at 100 mg/kg, po measured after 6 hrs by LC-MS/MS analysis; format: ADME, organism-based, Lung; settings: in vivo
Cathepsin B = Cathepsin B (Homo sapiens, UniProt P07858); assay: Inhibition of C-terminal His-tagged Human cathepsin B expressed in FreeStyle 293-F cells using Z-Leu-Arg-MCA peptide as fluorogenic substrate preincubated for 30 mins followed by substrate addition and measured after 1 hr by multimode plate reader analysis; format: cell-based
Procathepsin L = Procathepsin L (Homo sapiens, UniProt P07711); assay: Inhibition of C-terminal His-tagged recombinant Human cathepsin L (18 to 333 residues) expressed in FreeStyle 293-F cells using Z-Leu-Arg-MCA peptide as fluorogenic substrate preincubated for 30 mins followed by substrate addition and measured after 1 hr by multimode plate reader analysis; format: cell-based
[8] = GSH reactivity in potassium phosphate buffer at pH 7.4 assessed as half life at 1 mM; format: physicochemical; settings: potassium phosphate buffer with GSH
cells = settings: Betacoronavirus 1, HEK-293T
Cathepsin S = Cathepsin S (Homo sapiens, UniProt P25774); assay: Inhibition of C-terminal His-tagged recombinant Human cathepsin S (17 to 331 residues) expressed in FreeStyle 293-F cells using Z-Leu-Arg-MCA peptide as fluorogenic substrate preincubated for 30 mins followed by substrate addition and measured after 1 hr by multimode plate reader analysis; format: cell-based
[9] = Plasma protein binding in mouse assessed as unbound fraction at 1 uM incubated for 16 to 20 hrs by LC-MS/MS analysis; format: ADME, cell-free; settings: time 16-20 hrs
[10] = tested on: Middle East respiratory syndrome-related coronavirus; assay: microbe, parasite or virus in culture; settings: EMC2012, HEK-293T
[11] = Bioavailability in fasted ICR/c mouse at 100 mg/kg, po or 10 mg/kg, iv by LC-MS/MS analysis; format: ADME, organism-based; settings: in vivo
SARS-CoV = assay: microbe, parasite or virus in culture; settings: Severe acute respiratory syndrome-related coronavirus, HEK-293T
SARS-CoV-2 [12] = assay: microbe, parasite or virus in culture; settings: Severe acute respiratory syndrome coronavirus 2, Vero C1008; remark: listed apart in the source
[13] = Toxicity in fasted ICR/c mouse assessed as hypotension at 100 mg/kg, po; format: organism-based; settings: in vivo
[14] = Toxicity in fasted ICR/c mouse assessed as debilitation at 100 mg/kg, po; format: organism-based; settings: in vivo
[15] = molecular target: Replicase polyprotein 1ab (Severe acute respiratory syndrome coronavirus 2, UniProt P0DTD1); assay: Inhibition of recombinant full length SARS-CoV-2 3CLpro expressed in Escherichia coli using Ac-Abu-Tle-Leu-Gln-MCA as fluorogenic substrate preincubated for 30 mins followed by substrate addition and measured for 6 hrs by multimode plate reader analysis
[16] = molecular target: Replicase polyprotein 1ab (Severe acute respiratory syndrome coronavirus 2) (UniProt P0DTD1); assay: Binding affinity to SARS-CoV-2 3CLpro spiked in human A-431 cells assessed as increase in fluorescence intensity at 0.1 uM incubated for 1 hr by gel electrophoresis based fluorescence analysis; format: cell-based

Sequence of Cathepsin S (P25774 whole entry, the tested form may be a part): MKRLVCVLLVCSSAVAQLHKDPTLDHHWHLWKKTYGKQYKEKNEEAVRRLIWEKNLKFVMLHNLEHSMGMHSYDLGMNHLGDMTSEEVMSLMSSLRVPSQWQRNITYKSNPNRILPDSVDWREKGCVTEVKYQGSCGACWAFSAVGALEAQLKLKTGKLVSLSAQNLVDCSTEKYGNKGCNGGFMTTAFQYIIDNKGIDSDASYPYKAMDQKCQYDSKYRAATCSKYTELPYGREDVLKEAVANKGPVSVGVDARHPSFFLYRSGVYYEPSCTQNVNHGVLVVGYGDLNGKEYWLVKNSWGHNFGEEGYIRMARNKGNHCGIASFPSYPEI
Sequence of Procathepsin L (P07711 whole entry, the tested form may be a part): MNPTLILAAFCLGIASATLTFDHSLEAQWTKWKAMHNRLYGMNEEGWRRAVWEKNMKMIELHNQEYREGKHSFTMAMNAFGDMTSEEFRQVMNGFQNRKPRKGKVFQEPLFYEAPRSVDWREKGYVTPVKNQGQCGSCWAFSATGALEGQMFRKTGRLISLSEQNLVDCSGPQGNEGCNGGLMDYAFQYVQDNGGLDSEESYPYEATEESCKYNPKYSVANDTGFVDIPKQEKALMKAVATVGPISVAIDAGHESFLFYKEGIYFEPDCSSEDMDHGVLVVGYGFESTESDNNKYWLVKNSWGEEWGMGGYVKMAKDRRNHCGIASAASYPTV

Structure (SMILES)	EC50 (SARS-CoV-2 [1]) [nM]	EC50 (SARS-CoV-2 [2]) [nM]	EC50 (SARS-CoV-2 [3]) [nM]	EC50 (SARS-CoV-2 [6]) [nM]	EC50 (cells) [nM]	EC50 [10] [nM]	EC50 (SARS-CoV) [nM]	EC50 (SARS-CoV-2 [12]) [nM]	further results
CC(C)C[C@H](NC(=O)c1cc2c(F)cccc2[nH]1)C(=O)NN(C[C@@H]1CCNC1=O)C(=O)[C@@H](F)Cl	69	48.7	198	–	–	–	–	–	inhibition [4]: Tde
CC(C)C[C@H](NC(=O)c1cc2c(F)cccc2[nH]1)C(=O)NN(C[C@@H]1CCNC1=O)C(=O)[C@H](F)Cl	13.8	737	–	59	1.67	4.72	59.3	–	Ct [5]: 63 nmol/mg; Ct [7]: 78 nmol/mg; IC50 (Cathepsin B): > 50000 nM; IC50 (Procathepsin L): > 50000 nM; half-life at 1000 µM [8]: 48.2 h; IC50 (Cathepsin S): > 50000 nM; Fu [9]: 0.15%; bioavailability [11]: 9%; inhibition [4]: Tde
COc1cccc2[nH]c(C(=O)N[C@@H](CC(C)C)C(=O)N[C@@H](C[C@@H]3CCNC3=O)C(=O)CO)cc12 [PF-00835231]	1600	692	915	509	929	700	3240	> 50000	–
COc1cccc2[nH]c(C(=O)N[C@@H](CC(C)C)C(=O)NN(C[C@@H]3CCNC3=O)C(=O)[C@H](F)Cl)cc12	16.2	8.79	24.4	69.7	3.18	5.01	64.4	20800	Activity [13]: Toxic; Activity [14]: Toxic; IC50 [15]: 9.5 nM
O=c1nc(NO)ccn1[C@@H]1O[C@H](CO)[C@@H](O)[C@H]1O [N-HYDROXYCYTIDINE]	1220	351	446	238	1190	1320	1560	204	–
COc1cccc2[nH]c(C(=O)N[C@@H](CC(C)C)C(=O)NN(C[C@H]3CCNC3=O)C(=O)[C@H](F)Cl)cc12	103	50	119	389	–	–	–	> 50000	–
CC(C)C[C@H](NC(=O)c1cc2c(F)cccc2[nH]1)C(=O)NN(C[C@H]1CCNC1=O)C(=O)[C@H](F)Cl	92.3	44.5	141	423	–	–	–	> 50000	–
C#CCOc1cccc2[nH]c(C(=O)N[C@@H](CC(C)C)C(=O)NN(C[C@@H]3CCNC3=O)C(=O)[C@H](F)Cl)cc12	–	–	–	–	–	–	–	–	Activity [16]: Active
CC(=O)N(C[C@@H]1CCNC1=O)NC(=O)[C@H](CC(C)C)NC(=O)c1cc2c(F)cccc2[nH]1	–	–	–	–	–	–	–	–	IC50 [15]: 332 nM
